{"source": "the supplement of paper PMC10307832", "test_in_all_cases": "relative viability (nuclei count vs DMSO), 5 days (fraction); higher = more cells survive", "key": {"ChaGo-K-1": {"system": "ChaGo-K-1", "how_it_was_run": "(§1)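 Each reported value is a median over duplicate plates. It expresses relative viability: treated-well nuclei count divided by vehicle-well nuclei count. Lung cancer cell lines in 1536-well plates were dosed by pin tool a day after seeding, alone with one drug or with a fixed anchor-drug dose plus five library-drug doses (not always all listed) in √10 steps, and nuclei were counted after 5 days.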"}, "EMC-BAC-2": {"system": "EMC-BAC-2", "how_it_was_run": "as §1"}, "LCLC-97TM1": {"system": "LCLC-97TM1", "how_it_was_run": "as §1"}, "LXF-289": {"system": "LXF-289", "how_it_was_run": "as §1"}, "NCI-H1395": {"system": "NCI-H1395", "how_it_was_run": "as §1"}, "NCI-H1651": {"system": "NCI-H1651", "how_it_was_run": "as §1"}, "NCI-H1734": {"system": "NCI-H1734", "how_it_was_run": "as §1"}, "NCI-H1793": {"system": "NCI-H1793", "how_it_was_run": "as §1"}, "NCI-H1915": {"system": "NCI-H1915", "how_it_was_run": "as §1"}, "NCI-H1944": {"system": "NCI-H1944", "how_it_was_run": "as §1"}, "NCI-H2023": {"system": "NCI-H2023", "how_it_was_run": "as §1"}, "NCI-H2087": {"system": "NCI-H2087", "how_it_was_run": "as §1"}, "NCI-H2126": {"system": "NCI-H2126", "how_it_was_run": "as §1"}, "NCI-H2405": {"system": "NCI-H2405", "how_it_was_run": "as §1"}, "NCI-H3122": {"system": "NCI-H3122", "how_it_was_run": "as §1"}, "NCI-H322M": {"system": "NCI-H322M", "how_it_was_run": "as §1"}, "NCI-H441": {"system": "NCI-H441", "how_it_was_run": "as §1"}, "NCI-H522": {"system": "NCI-H522", "how_it_was_run": "as §1"}, "NCI-H596": {"system": "NCI-H596", "how_it_was_run": "as §1"}, "NCI-H650": {"system": "NCI-H650", "how_it_was_run": "as §1"}, "NCI-H661": {"system": "NCI-H661", "how_it_was_run": "as §1"}, "NCI-H838": {"system": "NCI-H838", "how_it_was_run": "as §1"}, "PC-14": {"system": "PC-14", "how_it_was_run": "as §1"}, "SW 1573": {"system": "SW 1573", "how_it_was_run": "as §1"}, "UMC-11": {"system": "UMC-11", "how_it_was_run": "as §1"}}}
{"smiles": "Nc1cccc2c1CN(C1CCC(=O)NC1=O)C2=O", "note": "(stereo unspecified) [Lenalidomide] + O=C(CCCCCCC(=O)Nc1ccccc1)NO [Vorinostat] (partner 1 µM)", "values": [{"measurement": "relative viability", "setting": "ChaGo-K-1; first compound 0.253 µM", "result": 0.773}, {"measurement": "relative viability", "setting": "ChaGo-K-1; first compound 0.8 µM", "result": 0.753}, {"measurement": "relative viability", "setting": "ChaGo-K-1; first compound 2.53 µM", "result": 0.838}, {"measurement": "relative viability", "setting": "ChaGo-K-1; first compound 8 µM", "result": 0.694}, {"measurement": "relative viability", "setting": "EMC-BAC-2; first compound 0.253 µM", "result": 0.74}, {"measurement": "relative viability", "setting": "EMC-BAC-2; first compound 0.8 µM", "result": 0.42}, {"measurement": "relative viability", "setting": "EMC-BAC-2; first compound 2.53 µM", "result": 0.446}, {"measurement": "relative viability", "setting": "EMC-BAC-2; first compound 8 µM", "result": 0.335}, {"measurement": "relative viability", "setting": "LCLC-97TM1; first compound 0.253 µM", "result": 0.586}, {"measurement": "relative viability", "setting": "LCLC-97TM1; first compound 0.8 µM", "result": 0.581}, {"measurement": "relative viability", "setting": "LCLC-97TM1; first compound 2.53 µM", "result": 0.901}, {"measurement": "relative viability", "setting": "LCLC-97TM1; first compound 8 µM", "result": 0.507}, {"measurement": "relative viability", "setting": "LXF-289; first compound 0.253 µM", "result": 0.812}, {"measurement": "relative viability", "setting": "LXF-289; first compound 0.8 µM", "result": 0.625}, {"measurement": "relative viability", "setting": "LXF-289; first compound 2.53 µM", "result": 0.798}, {"measurement": "relative viability", "setting": "LXF-289; first compound 8 µM", "result": 0.838}, {"measurement": "relative viability", "setting": "NCI-H1395; first compound 0.253 µM", "result": 0.807}, {"measurement": "relative viability", "setting": "NCI-H1395; first compound 2.53 µM", "result": 0.736}, {"measurement": "relative viability", "setting": "NCI-H1395; first compound 8 µM", "result": 0.567}, {"measurement": "relative viability", "setting": "NCI-H1651; first compound 0.253 µM", "result": 0.624}, {"measurement": "relative viability", "setting": "NCI-H1651; first compound 0.8 µM", "result": 0.471}, {"measurement": "relative viability", "setting": "NCI-H1651; first compound 2.53 µM", "result": 0.589}, {"measurement": "relative viability", "setting": "NCI-H1651; first compound 8 µM", "result": 0.579}, {"measurement": "relative viability", "setting": "NCI-H1734; first compound 0.253 µM", "result": 0.855}, {"measurement": "relative viability", "setting": "NCI-H1734; first compound 0.8 µM", "result": 0.759}, {"measurement": "relative viability", "setting": "NCI-H1734; first compound 2.53 µM", "result": 0.871}, {"measurement": "relative viability", "setting": "NCI-H1734; first compound 8 µM", "result": 0.735}, {"measurement": "relative viability", "setting": "NCI-H1793; first compound 0.253 µM", "result": 0.739}, {"measurement": "relative viability", "setting": "NCI-H1793; first compound 2.53 µM", "result": 1.02}, {"measurement": "relative viability", "setting": "NCI-H1793; first compound 8 µM", "result": 0.35}, {"measurement": "relative viability", "setting": "NCI-H1915; first compound 0.253 µM", "result": 0.478}, {"measurement": "relative viability", "setting": "NCI-H1915; first compound 0.8 µM", "result": 0.482}, {"measurement": "relative viability", "setting": "NCI-H1915; first compound 2.53 µM", "result": 0.601}, {"measurement": "relative viability", "setting": "NCI-H1915; first compound 8 µM", "result": 0.445}, {"measurement": "relative viability", "setting": "NCI-H1944; first compound 0.253 µM", "result": 0.543}, {"measurement": "relative viability", "setting": "NCI-H1944; first compound 2.53 µM", "result": 0.58}, {"measurement": "relative viability", "setting": "NCI-H1944; first compound 8 µM", "result": 0.44}, {"measurement": "relative viability", "setting": "NCI-H2023; first compound 0.253 µM", "result": 0.637}, {"measurement": "relative viability", "setting": "NCI-H2023; first compound 0.8 µM", "result": 0.732}, {"measurement": "relative viability", "setting": "NCI-H2023; first compound 2.53 µM", "result": 0.652}, {"measurement": "relative viability", "setting": "NCI-H2023; first compound 8 µM", "result": 0.468}, {"measurement": "relative viability", "setting": "NCI-H2087; first compound 0.253 µM", "result": 0.809}, {"measurement": "relative viability", "setting": "NCI-H2087; first compound 2.53 µM", "result": 0.84}, {"measurement": "relative viability", "setting": "NCI-H2087; first compound 8 µM", "result": 0.56}, {"measurement": "relative viability", "setting": "NCI-H2126; first compound 0.253 µM", "result": 0.771}, {"measurement": "relative viability", "setting": "NCI-H2126; first compound 0.8 µM", "result": 0.747}, {"measurement": "relative viability", "setting": "NCI-H2126; first compound 2.53 µM", "result": 0.832}, {"measurement": "relative viability", "setting": "NCI-H2126; first compound 8 µM", "result": 0.658}, {"measurement": "relative viability", "setting": "NCI-H2405; first compound 0.253 µM", "result": 1.12}, {"measurement": "relative viability", "setting": "NCI-H2405; first compound 0.8 µM", "result": 0.934}, {"measurement": "relative viability", "setting": "NCI-H2405; first compound 2.53 µM", "result": 1.09}, {"measurement": "relative viability", "setting": "NCI-H2405; first compound 8 µM", "result": 0.943}, {"measurement": "relative viability", "setting": "NCI-H3122; first compound 0.253 µM", "result": 0.723}, {"measurement": "relative viability", "setting": "NCI-H3122; first compound 0.8 µM", "result": 1.05}, {"measurement": "relative viability", "setting": "NCI-H3122; first compound 2.53 µM", "result": 0.95}, {"measurement": "relative viability", "setting": "NCI-H3122; first compound 8 µM", "result": 0.966}, {"measurement": "relative viability", "setting": "NCI-H322M; first compound 0.253 µM", "result": 0.934}, {"measurement": "relative viability", "setting": "NCI-H322M; first compound 0.8 µM", "result": 0.907}, {"measurement": "relative viability", "setting": "NCI-H322M; first compound 2.53 µM", "result": 0.962}, {"measurement": "relative viability", "setting": "NCI-H322M; first compound 8 µM", "result": 0.986}, {"measurement": "relative viability", "setting": "NCI-H441; first compound 0.253 µM", "result": 0.77}, {"measurement": "relative viability", "setting": "NCI-H441; first compound 0.8 µM", "result": 0.757}, {"measurement": "relative viability", "setting": "NCI-H441; first compound 2.53 µM", "result": 0.863}, {"measurement": "relative viability", "setting": "NCI-H441; first compound 8 µM", "result": 0.944}, {"measurement": "relative viability", "setting": "NCI-H522; first compound 0.253 µM", "result": 0.767}, {"measurement": "relative viability", "setting": "NCI-H522; first compound 0.8 µM", "result": 0.86}, {"measurement": "relative viability", "setting": "NCI-H522; first compound 2.53 µM", "result": 1.09}, {"measurement": "relative viability", "setting": "NCI-H522; first compound 8 µM", "result": 0.781}, {"measurement": "relative viability", "setting": "NCI-H596; first compound 0.253 µM", "result": 0.584}, {"measurement": "relative viability", "setting": "NCI-H596; first compound 0.8 µM", "result": 0.464}, {"measurement": "relative viability", "setting": "NCI-H596; first compound 2.53 µM", "result": 0.689}, {"measurement": "relative viability", "setting": "NCI-H596; first compound 8 µM", "result": 0.52}, {"measurement": "relative viability", "setting": "NCI-H650; first compound 0.253 µM", "result": 0.492}, {"measurement": "relative viability", "setting": "NCI-H650; first compound 0.8 µM", "result": 0.446}, {"measurement": "relative viability", "setting": "NCI-H650; first compound 2.53 µM", "result": 0.59}, {"measurement": "relative viability", "setting": "NCI-H650; first compound 8 µM", "result": 0.322}, {"measurement": "relative viability", "setting": "NCI-H661; first compound 0.253 µM", "result": 0.737}, {"measurement": "relative viability", "setting": "NCI-H661; first compound 0.8 µM", "result": 0.828}, {"measurement": "relative viability", "setting": "NCI-H661; first compound 2.53 µM", "result": 0.893}, {"measurement": "relative viability", "setting": "NCI-H661; first compound 8 µM", "result": 0.848}, {"measurement": "relative viability", "setting": "NCI-H838; first compound 0.253 µM", "result": 0.732}, {"measurement": "relative viability", "setting": "NCI-H838; first compound 0.8 µM", "result": 0.692}, {"measurement": "relative viability", "setting": "NCI-H838; first compound 2.53 µM", "result": 0.712}, {"measurement": "relative viability", "setting": "NCI-H838; first compound 8 µM", "result": 0.697}, {"measurement": "relative viability", "setting": "PC-14; first compound 0.253 µM", "result": 0.745}, {"measurement": "relative viability", "setting": "PC-14; first compound 0.8 µM", "result": 0.713}, {"measurement": "relative viability", "setting": "PC-14; first compound 2.53 µM", "result": 0.826}, {"measurement": "relative viability", "setting": "PC-14; first compound 8 µM", "result": 0.922}, {"measurement": "relative viability", "setting": "SW 1573; first compound 0.253 µM", "result": 0.456}, {"measurement": "relative viability", "setting": "SW 1573; first compound 0.8 µM", "result": 0.822}, {"measurement": "relative viability", "setting": "SW 1573; first compound 2.53 µM", "result": 0.974}, {"measurement": "relative viability", "setting": "SW 1573; first compound 8 µM", "result": 0.759}, {"measurement": "relative viability", "setting": "UMC-11; first compound 0.253 µM", "result": 0.441}, {"measurement": "relative viability", "setting": "UMC-11; first compound 0.8 µM", "result": 0.378}, {"measurement": "relative viability", "setting": "UMC-11; first compound 2.53 µM", "result": 0.428}, {"measurement": "relative viability", "setting": "UMC-11; first compound 8 µM", "result": 0.381}]}
